Several values for one entry are separate records, joined by “and”; a condition that tells them apart may be missing. Identical values can stand only once.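 All cell lines were grown in 96-well plates and treated with compound for 48 hours. At the GI50, growth is halved. At the TGI there is no net growth.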

Some test systems named below: 786-0 renal; BT-549 breast; HT29 colon; OVCAR-3 ovarian; SF-268 CNS; SF-539 CNS; T-47D breast; U251 CNS; UACC-62 melanoma; SR leukemia; MDA-N.
Common to all, as to experiment: DTP human tumour cell line panel, 48 h

In general, TGI refers to the concentration giving total growth inhibition. Lower therefore signals greater sensitivity of the cells. In the case of `CN1C(=O)C(O)CC1c1cccc(C(F)(F)F)c1` (stereo not given), the concentration for total growth inhibition (TGI) in the test with 786-0 renal, with BT-549 breast, in the test with HT29 colon, in the test with OVCAR-3 ovarian, in the test with SF-268 CNS and in the test with SF-539 CNS was more than 100 µM each time. In addition, the concentration for total growth inhibition (TGI) in the test on T-47D breast, in the test on U251 CNS and with UACC-62 melanoma was more than 100 µM throughout.

Turning to `CC1(C2CCC3(C)OC3C2)CO1` (stereo not given), the concentration for total growth inhibition (TGI) in the test on 786-0 renal, in the test on HT29 colon, in the test with OVCAR-3 ovarian, in the test on SF-268 CNS, with SF-539 CNS and in the test with SR leukemia was more than 100 µM in each case. Besides, the TGI in the test on U251 CNS and with UACC-62 melanoma was more than 100 µM in each case.

For `Cc1ccccc1OC(C)C(=O)NN1C(=O)CC(=O)N(c2ccccc2)C1=S` (stereo not given), the TGI in the test with 786-0 renal, in the test with BT-549 breast, in the test with HT29 colon, in the test with OVCAR-3 ovarian, with SF-268 CNS and in the test on SF-539 CNS was more than 100 µM throughout. Further, the total growth inhibition concentration (TGI) with T-47D breast, in the test on U251 CNS and with UACC-62 melanoma was more than 100 µM each time.

For `COC(=O)c1c(-c2ccc(Cl)cc2)cc2c3ccccc3n(C)c2c1C(=O)OC`, the TGI in the test with 786-0 renal, in the test with BT-549 breast, in the test with HT29 colon, with MDA-N, in the test on OVCAR-3 ovarian and in the test with SF-268 CNS was more than 100 µM each time. In addition, the TGI in the test on SF-539 CNS, with U251 CNS and in the test on UACC-62 melanoma was more than 100 µM each time.

On to `Cc1[nH]c(=O)[nH]c(=S)c1C(=O)Nc1cccc2cc3ccccc3cc12`, for which the TGI with BT-549 breast, in the test on HT29 colon, with OVCAR-3 ovarian, in the test on SF-268 CNS, in the test with SR leukemia and in the test with T-47D breast was more than 100 µM each time. Moreover, the total growth inhibition concentration (TGI) with U251 CNS and in the test with UACC-62 melanoma was more than 100 µM each time.

With `COc1ccc(CCN2CCc3c(C)c(C#N)c4nc5ccccc5n4c32)cc1OC`, the TGI is more than 100 µM with 786-0 renal; 84.2 µM with BT-549 breast; more than 100 µM in the test with HT29 colon; 43.1 µM with MDA-N; more than 100 µM with OVCAR-3 ovarian; more than 100 µM in the test with SF-268 CNS. Also, the TGI in the test with SF-539 CNS was more than 100 µM; in the test on U251 CNS it was more than 100 µM; in the test with UACC-62 melanoma, 95.3 µM.

One may read the GI50 as the concentration at which growth is held to half of that of the control. On to `O=C1C=CC(=O)c2c(O)c(N3CCN(CCOCCO)CC3)c(Cl)c(O)c21`, for which the GI50 in the test on BT-549 breast was 0.722 µM and 0.422 µM and 2.27 µM; in the test with HT29 colon, 0.42 µM and 0.592 µM and 0.288 µM; in the test on SR leukemia, 0.104 µM and 0.0382 µM and 0.0771 µM. Further, the TGI was 2.11 µM and 1.49 µM and 3.91 µM in the test with BT-549 breast; 1.66 µM and 1.61 µM and 1.07 µM with HT29 colon; 2.14 µM [middle of 4 runs] in the test with OVCAR-3 ovarian; 3.31 µM [middle of 4 runs] with SF-539 CNS; 0.43 µM and 0.614 µM and 0.321 µM with SR leukemia; 3.01 µM [middle of 4 runs] in the test on UACC-62 melanoma.

With `CCN(CC)CCN(C(=O)C(C)(C)C)c1ccccc1N`, the TGI in the test on 786-0 renal, with BT-549 breast, in the test with HT29 colon, in the test on MDA-N, in the test on OVCAR-3 ovarian and in the test on SF-268 CNS was more than 100 µM in each case. For the same compound, the TGI in the test on SF-539 CNS, in the test with SR leukemia, in the test with U251 CNS and in the test on UACC-62 melanoma was more than 100 µM in each case.

As to `CC(C)C(=O)Oc1cc2c(=O)oc3c(OC(=O)C(C)C)c(OC(=O)C(C)C)cc4c(=O)oc(c1OC(=O)C(C)C)c2c34`, the TGI in the test on 786-0 renal, in the test on BT-549 breast, in the test on HT29 colon, with MDA-N, in the test on OVCAR-3 ovarian and with SF-268 CNS was more than 100 µM each time. Moreover, the TGI in the test with SF-539 CNS, in the test with U251 CNS and with UACC-62 melanoma was more than 100 µM in each case.

For the compound `C=C1C(=O)O[C@H]2[C@H]3O[C@@H](C[C@@H]12)[C@](C)(O)CC[C@@H]1O[C@@]1(C)CCC[C@H]3C`, the concentration for total growth inhibition (TGI) was found to be 33.9 µM with 786-0 renal; 31.5 µM in the test on BT-549 breast; 68.6 µM with HT29 colon; 46.6 µM in the test on OVCAR-3 ovarian; 34.2 µM in the test on SF-268 CNS; 53.7 µM with SF-539 CNS. In addition, the TGI is more than 100 µM in the test on SR leukemia, 82.4 µM in the test with T-47D breast, 84.5 µM in the test with U251 CNS and 33.2 µM with UACC-62 melanoma.

`CO[C@]1(CN2CCN3CCCC[C@@H]3C2)/C=C/C[C@H](C)[C@@H](C)S(=O)(=O)NC(=O)c2ccc3c(c2)N(C[C@@H]2CC[C@H]21)C[C@@]1(CCCc2cc(Cl)ccc21)CO3`: the GI50 is 1.62 µM in the test with OVCAR-3 ovarian, 1.39 µM in the test with SF-539 CNS, 1.87 µM with T-47D breast and 0.148 µM in the test on UACC-62 melanoma. The concentration for total growth inhibition (TGI) was 3.03 µM with OVCAR-3 ovarian, 2.72 µM in the test on SF-539 CNS, 5.11 µM in the test on T-47D breast and 1.22 µM in the test on UACC-62 melanoma.

Turning to `CC(=O)O[C@H]1CC[C@@]2(C)[C@H](CC[C@@H]3[C@@H]2CC[C@]2(C)[C@@H](c4ccc(=O)oc4)C[C@H]4O[C@]342)C1`, the total growth inhibition concentration (TGI) with HT29 colon came to 12.7 µM; with OVCAR-3 ovarian, 1.67 µM; in the test with SF-268 CNS, 1.29 µM; in the test with SF-539 CNS, 1.72 µM; with U251 CNS it was 4.6 µM; with UACC-62 melanoma it was 3.46 µM.

Turning to `CC(=O)Nc1cc(Nc2cc(=O)[nH]c(=O)[nH]2)ccc1C`, the TGI in the test with 786-0 renal, in the test with BT-549 breast, in the test with MDA-N, in the test with OVCAR-3 ovarian, with SF-268 CNS and in the test with SF-539 CNS was more than 100 µM each time. For the same compound, the total growth inhibition concentration (TGI) with SR leukemia and in the test with U251 CNS was more than 100 µM each time.

Take `CC(=O)CC(=O)CCC(=O)O`: the concentration for total growth inhibition (TGI) in the test on HT29 colon, in the test on SF-268 CNS, with SF-539 CNS, with SR leukemia and in the test with U251 CNS was more than 100 µM in each case.

Take `C=CC1CN2CCC1CC2C(O)c1ccnc2ccccc12` (stereo not given): the TGI in the test with 786-0 renal, with BT-549 breast, in the test with HT29 colon, in the test on OVCAR-3 ovarian, with SF-268 CNS and in the test with SF-539 CNS was more than 100 µM in each case. The total growth inhibition concentration (TGI) with SR leukemia, in the test with T-47D breast, in the test on U251 CNS and in the test on UACC-62 melanoma was more than 100 µM each time. The GI50 with HT29 colon and with SR leukemia was more than 100 µM throughout.

Consider `O=C(Nc1cccc(-n2cc(-c3ccncc3)c(-c3ccc(O)c(Cl)c3)n2)c1)c1cccc(C(F)(F)F)c1`, for which the GI50 with BT-549 breast is 3.34 µM; in the test with HT29 colon, 5.18 µM; in the test on SF-268 CNS, 7.11 µM; in the test on SF-539 CNS, 3.27 µM; with SR leukemia, 1.6 µM; with T-47D breast it was 3 µM. Also, the GI50 with U251 CNS was 2.14 µM; in the test on UACC-62 melanoma, 6.52 µM. Moreover, the TGI in the test with BT-549 breast is more than 100 µM; in the test with HT29 colon, more than 100 µM; in the test with SF-268 CNS, more than 100 µM; in the test on SF-539 CNS, more than 100 µM; with SR leukemia, 8.1 µM; in the test on T-47D breast, more than 100 µM. Further, the TGI with U251 CNS and with UACC-62 melanoma was more than 100 µM each time.

Take `O=C1C=CC(=O)c2c(Cl)ccc(O)c21`: the TGI with HT29 colon is 44.9 µM; in the test with OVCAR-3 ovarian it was 29.1 µM; in the test with SF-268 CNS it was 33.4 µM; in the test on SF-539 CNS it was more than 56.8 µM; with U251 CNS, more than 100 µM; with UACC-62 melanoma it was 30.9 µM.

Regarding `O=[N+]([O-])c1cccnc1-n1cnc2ccccc21`, the TGI with 786-0 renal, in the test with BT-549 breast, in the test on HT29 colon, with OVCAR-3 ovarian, with SF-268 CNS and with SF-539 CNS was more than 100 µM throughout. In addition, the concentration for total growth inhibition (TGI) in the test on SR leukemia, with T-47D breast, with U251 CNS and in the test on UACC-62 melanoma was more than 100 µM each time.

With `CCOC(=O)c1cn(C)c(=S)n2c1nc1ccccc12`, the TGI in the test on 786-0 renal, in the test on BT-549 breast, in the test on OVCAR-3 ovarian, in the test with SF-539 CNS, in the test on SR leukemia and in the test with T-47D breast was more than 100 µM each time. The TGI with U251 CNS and in the test with UACC-62 melanoma was more than 100 µM each time.

Regarding `Cc1csc(NC(=NCCN2CCOCC2)Nc2nc(C)cs2)n1`, the total growth inhibition concentration (TGI) in the test with HT29 colon, in the test on OVCAR-3 ovarian, in the test on SF-268 CNS, in the test on SF-539 CNS, in the test on U251 CNS and in the test with UACC-62 melanoma was more than 100 µM in each case.

As for `COc1ccccc1CNCCCCCCCCCCCCN1C(=O)c2ccc3c4c(ccc(c24)C1=O)C(=O)N(CCCCCCCCCCCCNCc1ccccc1OC)C3=O`, the GI50 is 7.74 µM with BT-549 breast; 2.01 µM in the test with HT29 colon; more than 50 µM in the test on SF-268 CNS; more than 50 µM in the test on T-47D breast; more than 50 µM in the test on UACC-62 melanoma. Besides, the concentration for total growth inhibition (TGI) in the test on BT-549 breast was 20.2 µM; in the test with HT29 colon, more than 50 µM; in the test on SF-268 CNS it was more than 50 µM; with T-47D breast, more than 50 µM; in the test with UACC-62 melanoma, more than 50 µM.

The values are drawn from PubChem BioAssay (NCI).
